For orientation: IC50 means the point on the concentration scale where inhibition reaches its midpoint. A lower IC50 goes with higher potency.

The assay deals with Tie-2 (Homo sapiens, UniProt Q02763). As to the kind of experiment: Tie-2 tyrosine kinase activity: kinase-dependent ATP consumption (pEY substrate, luciferase/luciferin chemiluminescence) or 33P-ATP incorporation into substrate. The format is biochemical. The following applies: Tie-2 (human enzyme) inhibition, Table 2, class symbols A-D. In outline: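 Values are IC50 categories: A below 50 nM, B above 50 to 1000 nM, C above 1000 to below 10,000 nM, D 10,000 nM or more. They were measured by 33P-ATP phosphate transfer onto a generic substrate bound to the plate (scintillation), or by luminescent luciferase detection of ATP used with pEY.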
Sequence of Tie-2 (Q02763 23-1124): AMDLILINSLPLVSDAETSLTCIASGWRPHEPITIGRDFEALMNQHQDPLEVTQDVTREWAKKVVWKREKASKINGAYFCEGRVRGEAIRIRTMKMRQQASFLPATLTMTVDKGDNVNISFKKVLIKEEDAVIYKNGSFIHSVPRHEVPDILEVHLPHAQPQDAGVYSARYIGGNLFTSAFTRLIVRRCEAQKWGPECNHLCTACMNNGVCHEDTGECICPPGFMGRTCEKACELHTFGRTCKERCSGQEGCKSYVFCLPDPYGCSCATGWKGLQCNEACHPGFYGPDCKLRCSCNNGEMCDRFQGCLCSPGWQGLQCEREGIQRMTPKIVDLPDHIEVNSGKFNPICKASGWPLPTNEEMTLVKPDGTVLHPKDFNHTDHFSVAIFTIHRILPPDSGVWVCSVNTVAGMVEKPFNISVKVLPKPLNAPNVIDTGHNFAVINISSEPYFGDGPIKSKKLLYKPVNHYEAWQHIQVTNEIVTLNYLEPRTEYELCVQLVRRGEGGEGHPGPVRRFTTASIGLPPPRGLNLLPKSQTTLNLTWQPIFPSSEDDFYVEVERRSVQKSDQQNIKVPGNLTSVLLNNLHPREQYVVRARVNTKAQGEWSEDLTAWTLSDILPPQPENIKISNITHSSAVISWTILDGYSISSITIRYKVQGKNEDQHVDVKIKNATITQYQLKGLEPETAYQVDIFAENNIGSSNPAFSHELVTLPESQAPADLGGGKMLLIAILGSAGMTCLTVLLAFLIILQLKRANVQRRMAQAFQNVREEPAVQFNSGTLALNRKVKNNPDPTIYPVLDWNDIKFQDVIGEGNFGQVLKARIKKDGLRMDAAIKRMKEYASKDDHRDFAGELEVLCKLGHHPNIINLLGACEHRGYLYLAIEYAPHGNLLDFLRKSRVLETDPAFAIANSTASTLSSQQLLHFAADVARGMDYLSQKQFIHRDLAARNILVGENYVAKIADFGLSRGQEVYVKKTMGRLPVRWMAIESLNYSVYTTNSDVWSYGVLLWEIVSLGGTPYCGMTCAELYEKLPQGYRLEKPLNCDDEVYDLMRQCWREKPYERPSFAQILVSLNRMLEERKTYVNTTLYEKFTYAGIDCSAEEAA
Compound `CCOc1ccccc1NC(=O)N(CCn1nc(-c2ccncc2)nc1-c1ccc(OC)c(Cl)c1)C1CCCC1` [Entry 121, N-(2-{5-[3-chloro-4-(methyloxy)phenyl]-3-pyridin-4-yl-1H-1,2,4-triazol-1-yl}ethyl)-N-cyclopentyl-N′-[2-(ethyloxy)phenyl]urea] showed a half-maximal inhibitory concentration (IC50) of 1 to 10 µM.
To `COc1ccc(-c2nc(-c3ccncc3)nn2CCN(C(=O)Nc2ccccc2C(F)(F)F)C2CCCC2)cc1Cl` [Entry 122, N-(2-{5-[3-chloro-4-(methyloxy)phenyl]-3-pyridin-4-yl-1H-1,2,4-triazol-1-yl}ethyl)-N-cyclopentyl-N′-[2-(trifluoromethyl)phenyl]urea] belongs at least 10 µM; to `COc1ccc(-c2nc(-c3ccncc3)nn2CCN(C(=O)Nc2c(C)cccc2C)C2CCCC2)cc1Cl` [Entry 123, N-(2-{5-[3-chloro-4-(methyloxy)phenyl]-3-pyridin-4-yl-1H-1,2,4-triazol-1-yl}ethyl)-N-cyclopentyl-N′-(2,6-dimethylphenyl)urea], at least 10 µM; to `COc1ccc(-c2nc(-c3ccncc3)nn2CCN(C(=O)Nc2ccc(C(F)(F)F)cc2)C2CCCC2)cc1Cl` [Entry 124, N-(2-{5-[3-chloro-4-(methyloxy)phenyl]-3-pyridin-4-yl-1H-1,2,4-triazol-1-yl}ethyl)-N-cyclopentyl-N′-[4-(trifluoromethyl)phenyl]urea], at least 10 µM.
With `COc1ccc(-c2nc(-c3ccncc3)nn2CCN(C(=O)N[C@@H](C)c2ccccc2)C2CCCC2)cc1Cl` [Entry 125, N-(2-{5-[3-chloro-4-(methyloxy)phenyl]-3-pyridin-4-yl-1H-1,2,4-triazol-1-yl}ethyl)-N-cyclopentyl-N′-[(1S)-1-phenylethyl]urea] the figure was 1 to 10 µM.
With `COc1ccc(-c2nc(-c3ccncc3)nn2CCN(C(=O)Nc2cc(Cl)c(Cl)cc2Cl)C2CCCC2)cc1Cl` [Entry 126, N-(2-{5-[3-chloro-4-(methyloxy)phenyl]-3-pyridin-4-yl-1H-1,2,4-triazol-1-yl}ethyl)-N-cyclopentyl-N′-(2,4,5-trichlorophenyl)urea] the figure was at least 10 µM; with `COc1ccc(-c2nc(-c3ccncc3)nn2CCN(C(=O)Nc2cccc(C)c2C)C2CCCC2)cc1Cl` [Entry 127, N-(2-{5-[3-chloro-4-(methyloxy)phenyl]-3-pyridin-4-yl-1H-1,2,4-triazol-1-yl}ethyl)-N-cyclopentyl-N′-(2,3-dimethylphenyl)urea], 1 to 10 µM.
`COc1ccc(-c2nc(-c3ccncc3)nn2CCN(C(=O)Nc2ccc(C)cc2C)C2CCCC2)cc1Cl` [Entry 128, N-(2-{5-[3-chloro-4-(methyloxy)phenyl]-3-pyridin-4-yl-1H-1,2,4-triazol-1-yl}ethyl)-N-cyclopentyl-N′-(2,4-dimethylphenyl)urea] registered an IC50 of at least 10 µM.
For the compound `COc1ccc(-c2nc(-c3ccncc3)nn2CCN(C(=O)Nc2ccc(C)c(Cl)c2)C2CCCC2)cc1Cl` [Entry 129, N-(2-{5-[3-chloro-4-(methyloxy)phenyl]-3-pyridin-4-yl-1H-1,2,4-triazol-1-yl}ethyl)-N′-(3-chloro-4-methylphenyl)-N-cyclopentylurea], the half-maximal inhibitory concentration (IC50) was at least 10 µM.
To `COc1ccc(-c2nc(-c3ccncc3)nn2CCN(C(=O)Nc2c(C)cccc2C(C)(C)C)C2CCCC2)cc1Cl` [Entry 130, N-(2-{5-[3-chloro-4-(methyloxy)phenyl]-3-pyridin-4-yl-1H-1,2,4-triazol-1-yl}ethyl)-N-cyclopentyl-N′-[2-(1,1-dimethylethyl)-6-methylphenyl]urea] belongs at least 10 µM; to `CCCCOc1ccc(NC(=O)N(CCn2nc(-c3ccncc3)nc2-c2ccc(OC)c(Cl)c2)C2CCCC2)cc1` [Entry 131, N′-[4-(butyloxy)phenyl]-N-(2-{5-[3-chloro-4-(methyloxy)phenyl]-3-pyridin-4-yl-1H-1,2,4-triazol-1-yl}ethyl)-N-cyclopentylurea], at least 10 µM; to `COc1ccc(-c2nc(-c3ccncc3)nn2CCN(C(=O)Nc2cccc([N+](=O)[O-])c2C)C2CCCC2)cc1Cl` [Entry 132, N-(2-{5-[3-chloro-4-(methyloxy)phenyl]-3-pyridin-4-yl-1H-1,2,4-triazol-1-yl}ethyl)-N-cyclopentyl-N′-(2-methyl-3-nitrophenyl)urea], at least 10 µM.
To `COc1ccc(-c2nc(-c3ccncc3)nn2CCN(C(=O)Nc2cc(Cl)ccc2Cl)C2CCCC2)cc1Cl` [Entry 133, N-(2-{5-[3-chloro-4-(methyloxy)phenyl]-3-pyridin-4-yl-1H-1,2,4-triazol-1-yl}ethyl)-N-cyclopentyl-N′-(2,5-dichlorophenyl)urea] belongs at least 10 µM.
`COc1ccc(-c2nc(-c3ccncc3)nn2CCN(C(=O)Nc2cccc(F)c2)C2CCCC2)cc1Cl` [Entry 134, N-(2-{5-[3-chloro-4-(methyloxy)phenyl]-3-pyridin-4-yl-1H-1,2,4-triazol-1-yl}ethyl)-N-cyclopentyl-N′-(3-fluorophenyl)urea]: the IC50 fell in the range of 1 to 10 µM.
With `COc1ccc(-c2nc(-c3ccncc3)nn2CCN(C(=O)Nc2ccc(Cl)cc2)C2CCCC2)cc1Cl` [Entry 135, N-(2-{5-[3-chloro-4-(methyloxy)phenyl]-3-pyridin-4-yl-1H-1,2,4-triazol-1-yl}ethyl)-N′-(4-chlorophenyl)-N-cyclopentylurea] the figure was at least 10 µM; with `COc1ccc(-c2nc(-c3ccncc3)nn2CCN(C(=O)Nc2ccc(C)cc2)C2CCCC2)cc1Cl` [Entry 136, N-(2-{5-[3-chloro-4-(methyloxy)phenyl]-3-pyridin-4-yl-1H-1,2,4-triazol-1-yl}ethyl)-N-cyclopentyl-N′-(4-methylphenyl)urea], at least 10 µM.
The compound `COc1ccc(-c2nc(-c3ccncc3)nn2CCN(C(=O)Nc2c(Cl)cc(Cl)cc2Cl)C2CCCC2)cc1Cl` [Entry 137, N-(2-{5-[3-chloro-4-(methyloxy)phenyl]-3-pyridin-4-yl-1H-1,2,4-triazol-1-yl}ethyl)-N-cyclopentyl-N′-(2,4,6-trichlorophenyl)urea] yielded a concentration for half-maximal inhibition (IC50) of at least 10 µM.
With `COc1ccc(NC(=O)N(CCn2nc(-c3ccncc3)nc2-c2ccc(OC)c(Cl)c2)C2CCCC2)c(C)c1` [Entry 138, N-(2-{5-[3-chloro-4-(methyloxy)phenyl]-3-pyridin-4-yl-1H-1,2,4-triazol-1-yl}ethyl)-N-cyclopentyl-N′-[2-methyl-4-(methyloxy)phenyl]urea] the figure was 1 to 10 µM; with `COc1ccc(-c2nc(-c3ccncc3)nn2CCN(C(=O)Nc2cc(C)ccc2C)C2CCCC2)cc1Cl` [Entry 139, N-(2-{5-[3-chloro-4-(methyloxy)phenyl]-3-pyridin-4-yl-1H-1,2,4-triazol-1-yl}ethyl)-N-cyclopentyl-N′-(2,5-dimethylphenyl)urea], 1 to 10 µM; with `COc1ccc(-c2nc(-c3ccncc3)nn2CCN(C(=O)Nc2cc(Cl)c(OC)cc2OC)C2CCCC2)cc1Cl` [Entry 140, N′-[5-chloro-2,4-bis(methyloxy)phenyl]-N-(2-{5-[3-chloro-4-(methyloxy)phenyl]-3-pyridin-4-yl-1H-1,2,4-triazol-1-yl}ethyl)-N-cyclopentylurea], at least 10 µM.
To `COc1ccc(-c2nc(-c3ccncc3)nn2CCN(C(=O)Nc2cc(Cl)cc(Cl)c2)C2CCCC2)cc1Cl` [Entry 141, N-(2-{5-[3-chloro-4-(methyloxy)phenyl]-3-pyridin-4-yl-1H-1,2,4-triazol-1-yl}ethyl)-N-cyclopentyl-N′-(3,5-dichlorophenyl)urea] belongs at least 10 µM.

The values are drawn from US8178570B2, “Tie-2 modulators and methods of use” (Exelixis, Inc., priority 2003, dated 2012).
